We go through six compounds from paper PMC8908490 (ACS Omega, 2022).

Data set [1] in a line: HPLC-based chemical stability at different pH. Particulars: for chemical stability (in words): acidic conditions, pH 1, 37 °C.
For data set [2] the following is noted: cited from earlier work.
Another data set concerns interleukin-1β. Particulars: cell-based interleukin-1β assay; cited from earlier work.
The target in a further data set is human NLRP3-NACHT domain (Homo sapiens, UniProt Q96P20). Particulars: presence of ADP.
Sequence of human NLRP3-NACHT domain (Q96P20 220-536 limits assumed): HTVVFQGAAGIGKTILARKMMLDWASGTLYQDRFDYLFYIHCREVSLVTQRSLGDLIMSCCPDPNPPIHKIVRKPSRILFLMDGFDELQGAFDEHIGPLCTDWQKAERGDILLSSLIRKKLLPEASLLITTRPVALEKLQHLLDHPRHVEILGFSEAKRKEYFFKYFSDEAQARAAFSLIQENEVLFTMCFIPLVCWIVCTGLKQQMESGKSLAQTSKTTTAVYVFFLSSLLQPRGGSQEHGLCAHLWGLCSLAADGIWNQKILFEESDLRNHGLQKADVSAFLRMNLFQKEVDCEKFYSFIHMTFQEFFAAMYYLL

On to `CC(C)(O)c1csc(S(=O)(=O)NC(=O)Nc2c3c(cc4c2CCC4)CCC3)c1` [Compound 2, N-((1,2,3,5,6,7-Hexahydro-s-indacen-4-yl)carbamoyl)-4-(2-hydroxypropan-2-yl)thiophene-2-sulfonamide], for which the “chemical stability (in words)” value in data set [1] was “similarly stable”.

Regarding `CC(C)(O)c1coc(S(=O)(=O)NC(=O)Nc2c3c(cc4c2CCC4)CCC3)c1` [Compound 1, N-((1,2,3,5,6,7-Hexahydro-s-indacen-4-yl)carbamoyl)-4-(2-hydroxypropan-2-yl)furan-2-sulfonamide], in data set [2], the plasma half-life is recorded as 3.27 h. Moreover, the IC50 in the data set on interleukin-1β is 7.5 nM.

On to `O=C(Nc1c2c(cc3c1CCC3)CCC2)NS(=O)(=O)c1cccs1` [Compound 4, N-((1,2,3,5,6,7-Hexahydro-s-indacen-4-yl)carbamoyl)thiophene-2-sulfonamide], for which the “fold shorter half-life than benzene analogue” value in data set [1] (pH 1, 4 versus 8, 6 versus 9) was 12 fold.

As for `CC(C)S(=O)(=O)NC(=O)Nc1c2c(cc3c1CCC3)CCC2` [Compound 5, N-((1,2,3,5,6,7-Hexahydro-s-indacen-4-yl)carbamoyl)propane-2-sulfonamide], in data set [1], the “chemical stability (in words)” value is given as “unstable”.

Regarding `O=C(Nc1c2c(cc3c1CCCC3)CCCC2)NS(=O)(=O)c1ccccc1` [Compound 7, N-((1,2,3,4,5,6,7,8-Octahydroanthracen-9-yl)carbamoyl)benzenesulfonamide], the “chemical stability (in words)” value in data set [1] is “similarly unstable”. The “NLRP3 binding by SPR (in words)” value on human NLRP3-NACHT domain is recorded as “total loss of binding ability”.

As for `O=C(Nc1c2c(cc3c1CCC3)CCC2)NS(=O)(=O)c1ccco1` [Compound 3, N-((1,2,3,5,6,7-Hexahydro-s-indacen-4-yl)carbamoyl)furan-2-sulfonamide], the “chemical stability (in words)” value in data set [1] is on record as “unstable”.
